These results are taken from patent US8435964B2, “Ectonucleotidase pyrophosphate/phosphodiestrase-1 (ENPP-1) as a target for the treatment of aortic valve stenosis and cardiovascular calcification” (Universite Laval, priority 2009, dated 2013).

The target in experiment [1] is T1, ENPP-1 (Homo sapiens, UniProt P22413).
T1 construct: endogenous in cells; host or cells: primary human valve interstitial cells (VICs)
T1 sequence (P22413 1-925): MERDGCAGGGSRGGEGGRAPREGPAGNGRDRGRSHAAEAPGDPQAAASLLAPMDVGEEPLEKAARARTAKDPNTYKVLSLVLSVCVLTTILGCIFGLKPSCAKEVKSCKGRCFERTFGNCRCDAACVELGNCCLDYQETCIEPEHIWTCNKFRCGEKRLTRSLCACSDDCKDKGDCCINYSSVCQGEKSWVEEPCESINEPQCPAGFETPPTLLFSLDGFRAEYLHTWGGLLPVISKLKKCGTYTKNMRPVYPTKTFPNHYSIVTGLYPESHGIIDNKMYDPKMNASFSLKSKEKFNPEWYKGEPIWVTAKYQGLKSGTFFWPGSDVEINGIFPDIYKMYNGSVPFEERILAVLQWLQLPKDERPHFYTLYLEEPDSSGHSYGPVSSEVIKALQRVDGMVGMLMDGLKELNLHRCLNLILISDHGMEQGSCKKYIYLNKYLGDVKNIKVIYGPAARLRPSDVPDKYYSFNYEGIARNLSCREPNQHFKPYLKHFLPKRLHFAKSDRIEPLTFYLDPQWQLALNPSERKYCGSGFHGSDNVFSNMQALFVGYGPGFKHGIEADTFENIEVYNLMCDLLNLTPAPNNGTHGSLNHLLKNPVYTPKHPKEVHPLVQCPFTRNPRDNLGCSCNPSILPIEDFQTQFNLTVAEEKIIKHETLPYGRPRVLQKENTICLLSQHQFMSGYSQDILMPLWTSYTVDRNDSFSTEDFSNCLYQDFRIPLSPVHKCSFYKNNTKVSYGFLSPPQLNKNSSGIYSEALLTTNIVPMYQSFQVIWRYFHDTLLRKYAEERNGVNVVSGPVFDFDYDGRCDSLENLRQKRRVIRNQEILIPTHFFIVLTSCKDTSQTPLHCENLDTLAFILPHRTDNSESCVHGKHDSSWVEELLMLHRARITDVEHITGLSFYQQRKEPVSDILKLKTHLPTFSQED
As to the kind of experiment: Phosphodiesterase activity in valve interstitial cells exposed to calcifying medium. Type of experiment: cell-based. As to conditions: VICs, calcifying medium (NaH2PO4 2 mM), 14 days; ARL 67156 10 μM and 25 μM. How it is done:
Phosphodiesterase activity was measured using the substrate p-nitrophenyl phenylphosphonate (PNPP-PP) (Sigma, Oakville, Ont, Canada). Proteins were isolated from normal control valves (n=14), AS valves (n=18) or valve interstitial cells (VICs) and used for enzyme activity. Cells were harvested with trypsine-EDTA (Invitrogen, Toronto, Ont, Canada), washed 2 times in washing buffer (NaCl 0.15M, TRIS-HCl pH 8.1, 20 mM, CaCl2 1 mM) and resuspended in assay buffer (NaCl 0.15M, TRIS-HCl pH 8.1, 20 mM, CaCl2 0.5 mM, 1 mM p-nitrophenyl phenylphosphonate). The same amount of proteins isolated from tissues were washed twice in washing buffer and resuspended in 600 μl of assay buffer. […] Absorbance was measured at 400 nm. Results were calculated using a molar absorption coefficient for p-nitrophenol of 18320 M^−1 cm^−1. […]
Human valve interstitial cells (VICs) were isolated by collagenase digestion from explanted hearts during transplant procedures. […] For calcium quantification, cells were decalcified with 0.6 M HCl for 24 h. The calcium content of the HCl supernatants was determined using the o-cresolphthalein complexone method. […] The protein content was determined using Biorad® assay kit (Biorad, Mississauga, Ont, Canada). […]

Experiment [2] deals with alkaline phosphatase. As to the kind of experiment: Alkaline phosphatase activity in valve interstitial cells exposed to calcifying medium. Type of experiment: cell-based, human. The note with it: VICs after exposition to calcifying medium. Here is the method: (§1) Human valve interstitial cells (VICs) were isolated by collagenase digestion from explanted hearts during transplant procedures. Cells were cultured in DMEM containing 10% FBS, 2 mM L-glutamine and 1 mM sodium pyruvate (Invitrogen, Toronto, Ont, Canada). Cells were seeded in 12 well plates (2×10^4 cells/well). To provoke calcification, cells were incubated with a pro-calcifying medium containing: DMEM+5% FBS, 10^−7 M insulin, 50 μg/ml ascorbic acid and NaH2PO4 at 2 mM (in some experiments where it is specified NaH2PO4 was used at 1, 2 and 5 mM). […] In some experiments ARL 67156 (a competitive inhibitor of ENPP-1) (10 μM and 25 μM) was added to the growth medium Studies were conducted at day 0, 7, 14 in triplicate. For calcium quantification, cells were decalcified with 0.6 M HCl for 24 h. The calcium content of the HCl supernatants was determined using the o-cresolphthalein complexone method. After decalcification, cells were washed with PBS and solubilised with 0.1 N NaOH/0.1% SDS. The protein content was determined using Biorad® assay kit (Biorad, Mississauga, Ont, Canada). Cells calcium content was normalized to protein content.

Experiment [3] relates to Human valve interstitial cells (VICs). Briefly: In vitro calcification of valve interstitial cells (calcium content, o-cresolphthalein complexone method). The class given is cell-based. The note with it: day 14 after treatment with calcifying medium; ARL 67156 10 μM and 25 μM. Here is the method: as §1
Experiment [4] relates to WVK rat model. As to the kind of experiment: Warfarin and vitamin K (WVK) rat model of aortic calcification. Type of experiment: in vivo. Here is the method: Animal experiments were approved by the Animal Care and Use Committee of Laval and Montreal Universities. Male Wistar rats (initial weight 200 g) were obtained from Charles River Breeding Laboratories (St Constant, Qc, Canada). The animals received warfarin (20 mg/kg/day in drinking water) and vitamin K (phylloquinone) (15 mg/kg/day subcutaneous injection) (WVK) (n=10) at day 1, 3, 5, 7, 14, 21, and 28. Dosages were adjusted every second day. Controls consisted of age-matched untreated rats (n=7). In two other groups of rats, ARL 67156 was administered at 0.55 μg/kg/day (n=10) and 1.1 μg/kg/day (n=10) during 28 days with osmotic pumps implanted subcutaneously. At day 28, animals were anesthetized with pentobarbital (65 mg/kg) for blood plasma sampling and the harvesting of aorta and heart. Segments of the aorta were frozen at −80° C. for the determination of calcium amount. The heart with the aortic root and valve was fixed in formaldehyde 10% for histological processing and immunohistology. […] Morphometric analyses of the aortic root (at the level of aortic valve and sinuses of Valsalva) were carried out using the Image-Pro Plus (MediaCybernetics, Bethesda, Md., USA) image analysis software to quantify the calcified areas (with the von Kossa staining) normalized to the total surface area of the section.

Entries after “also recorded” stand apart in the source; their conditions may differ.

`CCN(CC)c1ncnc2c1ncn2C1OC(COP(=O)(O)OP(=O)(O)C(Br)(Br)P(=O)(O)O)[C@@H](O)[C@H]1O` (some centres unmarked) [ARL 67156]: the phosphodiesterase activity result in experiment [1] is reported as “dose-dependently decreased; also recorded: significantly reduced”. Further, in experiment [2], the “alkaline phosphatase (ALP) activity” value is on record as “did not affect; also recorded: not affected”. Also, the “calcification of isolated VICs” value in experiment [3] is “significantly reduced; also recorded: dose-dependently reduced”. Besides, the “calcification of the aortic root at the level of aortic cusp” value in experiment [4] (rat treated with 1.1 μg/kg/d, von Kossa histology (FIG. 5F)) is given as “without calcification”. For the same compound, the “calcification of the aortic valve cusps” value in experiment [4] (rats under WVK regimen, 28 days, 0.55 μg/kg/d and 1.1 μg/kg/d by osmotic pump) is reported as “prevented the development of aortic valve calcifications; also recorded: not detected”.
